According to the NIST ThermoML archive (doi:10.1021/je500513b):

Experiment: mn = molality of the nth substance listed, in mol/kg
Settings: for surface tension liquid-gas: Pendant drop shape; for electrical conductivity: 100 kPa, Liquid, Mettler Toledo inLab 710

CCCCCCCCCCCC[N+](C)(C)CCC[N+](C)(C)CCCCCCCCCCCC.[Br-].[Br-] + O
Settings | electrical conductivity, 298.15 K [S/m] | electrical conductivity, 303.15 K [S/m] | electrical conductivity, 308.15 K [S/m] | electrical conductivity, 313.15 K [S/m] | electrical conductivity, 318.15 K [S/m] | electrical conductivity, 323.15 K [S/m] | surface tension liquid-gas, 298.15 K [mN/m]
m1 = 0.0001 | – | – | – | – | – | – | 60.28
m1 = 0.0002 | – | – | – | – | – | – | 51.37
m1 = 0.0004 | – | – | – | – | – | – | 41.67
m1 = 0.00057 | 0.0117 | 0.0131 | – | 0.0152 | 0.0174 | – | –
m1 = 0.00059 | – | – | – | – | – | 0.0191 | –
m1 = 0.0006 | – | – | – | – | – | – | 36.01
m1 = 0.00061 | 0.0126 | 0.0139 | – | 0.0168 | 0.0186 | – | –
m1 = 0.00063 | – | – | – | – | – | 0.0203 | –
m1 = 0.00064 | 0.0132 | 0.0146 | 0.0159 | 0.0176 | 0.0199 | – | –
m1 = 0.00067 | 0.0138 | 0.0152 | 0.0168 | 0.0186 | 0.0209 | 0.0218 | –
m1 = 0.0007 | 0.0144 | 0.0159 | 0.0176 | 0.0197 | 0.0219 | 0.0229 | 33.17
m1 = 0.00074 | 0.0151 | 0.0168 | 0.0184 | 0.0207 | 0.0231 | 0.0241 | –
m1 = 0.00077 | 0.0156 | 0.0172 | 0.0191 | – | – | – | –
m1 = 0.00079 | – | – | – | 0.0217 | 0.0245 | 0.0256 | –
m1 = 0.0008 | 0.0161 | 0.0178 | 0.0196 | – | – | – | 32.87
m1 = 0.00083 | 0.0165 | 0.0185 | 0.0203 | 0.0229 | 0.0253 | 0.0272 | –
m1 = 0.00085 | – | – | – | – | – | – | 32.79
m1 = 0.00087 | 0.0168 | 0.0191 | 0.021 | 0.0237 | 0.0262 | 0.0282 | –
m1 = 0.0009 | – | – | – | – | – | – | 32.84
m1 = 0.00091 | 0.0171 | 0.0195 | 0.0216 | 0.0245 | 0.0271 | 0.0293 | –
m1 = 0.00095 | 0.0175 | 0.02 | 0.0223 | 0.0254 | 0.028 | 0.0305 | –
m1 = 0.001 | 0.0179 | 0.0205 | 0.0228 | 0.0262 | 0.0289 | 0.0319 | 32.76
m1 = 0.00105 | 0.0183 | 0.0209 | 0.0234 | 0.027 | 0.0299 | 0.0334 | –
m1 = 0.0011 | – | – | – | – | – | – | 32.75
m1 = 0.00111 | 0.0187 | 0.0212 | 0.024 | 0.0277 | 0.0308 | 0.0349 | –
m1 = 0.00118 | 0.0191 | 0.0217 | 0.0244 | 0.0285 | 0.0318 | 0.036 | –
m1 = 0.0012 | – | – | – | – | – | – | 32.81
m1 = 0.00125 | 0.0195 | 0.0221 | 0.025 | 0.0293 | 0.0327 | 0.0374 | –
m1 = 0.00134 | 0.0199 | 0.0225 | 0.0257 | 0.0301 | 0.0335 | 0.0384 | –
m1 = 0.00143 | 0.0203 | 0.0229 | 0.0264 | 0.031 | 0.0347 | 0.0394 | –
m1 = 0.0015 | – | – | – | – | – | – | 32.59
m1 = 0.00154 | 0.0208 | 0.0235 | 0.027 | 0.0319 | 0.0357 | 0.0404 | –
m1 = 0.0016 | 0.0211 | 0.0237 | – | – | – | 0.0413 | –
m1 = 0.00163 | – | – | 0.0277 | – | – | – | –
m1 = 0.00167 | 0.0214 | 0.0242 | – | 0.0327 | 0.037 | 0.042 | –
m1 = 0.0017 | – | – | 0.028 | – | – | – | –
m1 = 0.00174 | 0.0217 | 0.0247 | – | 0.0331 | 0.0376 | 0.0427 | –
m1 = 0.00178 | – | – | 0.0285 | – | – | – | –
m1 = 0.00182 | 0.0221 | 0.0251 | – | 0.0336 | 0.0383 | 0.0434 | –
m1 = 0.00186 | – | – | 0.0291 | – | – | – | –
m1 = 0.00191 | 0.0225 | 0.0256 | – | 0.0343 | 0.039 | 0.044 | –
m1 = 0.002 | 0.023 | 0.0263 | 0.0301 | 0.0349 | 0.0399 | 0.0451 | 32.62

O [water] + CCCCCCCCCCCC[N+](C)(C)CCCC[N+](C)(C)CCCCCCCCCCCC.[Br-].[Br-]
Settings | surface tension liquid-gas [mN/m]
298.15 K, m2 = 0 | 71.98

O [water] + CCCCCCCCCCCCCC[N+](C)(C)CCCCCC[N+](C)(C)CCCCCCCCCCCCCC.[Br-].[Br-]
Settings | surface tension liquid-gas [mN/m]
298.15 K, m2 = 0 | 71.98

O [water] + CCCCCCCCCCCCCC[N+](C)(C)CCC[N+](C)(C)CCCCCCCCCCCCCC.[Br-].[Br-]
Settings | surface tension liquid-gas [mN/m]
298.15 K, m2 = 0 | 71.98

CCCCCCCCCCCCCC[N+](C)(C)CCC[N+](C)(C)CCCCCCCCCCCCCC.[Br-].[Br-] + O
Settings | electrical conductivity, 298.15 K [S/m] | electrical conductivity, 303.15 K [S/m] | electrical conductivity, 308.15 K [S/m] | electrical conductivity, 313.15 K [S/m] | electrical conductivity, 318.15 K [S/m] | electrical conductivity, 323.15 K [S/m] | surface tension liquid-gas, 298.15 K [mN/m]
m1 = 1e-05 | – | – | – | – | – | – | 57.45
m1 = 2e-05 | – | – | – | – | – | – | 53.65
m1 = 3e-05 | – | – | – | – | – | – | 50.48
m1 = 4e-05 | – | – | – | – | – | – | 47.51
m1 = 5e-05 | – | – | – | – | – | – | 45.48
m1 = 6e-05 | – | – | – | – | – | – | 42.44
m1 = 7e-05 | – | – | – | – | – | – | 40.27
m1 = 8e-05 | – | – | – | – | – | – | 38.27
m1 = 9e-05 | – | – | – | – | – | – | 37
m1 = 9.3e-05 | 0.00212 | – | 0.0026 | 0.00309 | 0.00331 | 0.00348 | –
m1 = 9.8e-05 | 0.00224 | 0.00251 | 0.00274 | 0.00324 | 0.00345 | 0.00363 | –
m1 = 0.0001 | – | – | – | – | – | – | 35.52
m1 = 0.000104 | 0.00236 | 0.00267 | 0.00288 | 0.00343 | 0.00361 | 0.00382 | –
m1 = 0.000111 | 0.0025 | 0.00283 | 0.00302 | 0.00364 | 0.00382 | 0.004 | –
m1 = 0.000119 | 0.00264 | 0.003 | 0.00323 | 0.00382 | 0.00404 | 0.00422 | –
m1 = 0.00012 | – | – | – | – | – | – | 34.27
m1 = 0.000125 | 0.00274 | 0.00311 | 0.00335 | 0.00391 | 0.0042 | 0.00441 | –
m1 = 0.000132 | 0.00285 | 0.00324 | 0.0035 | 0.00407 | 0.00435 | 0.00462 | –
m1 = 0.000139 | 0.00294 | 0.00337 | 0.00367 | 0.00423 | 0.00454 | 0.00486 | –
m1 = 0.00014 | – | – | – | – | – | – | 34.18
m1 = 0.000147 | 0.00303 | 0.00351 | 0.00382 | 0.00441 | 0.00478 | 0.00512 | –
m1 = 0.000156 | 0.00311 | 0.00364 | 0.00398 | 0.00463 | 0.00506 | 0.00542 | –
m1 = 0.000164 | 0.00318 | 0.00373 | 0.00411 | 0.00479 | 0.00528 | 0.00565 | –
m1 = 0.00017 | – | – | – | – | – | – | 34.06
m1 = 0.000172 | 0.00325 | 0.00381 | 0.00421 | 0.00497 | 0.0055 | 0.00593 | –
m1 = 0.000182 | 0.00331 | 0.0039 | 0.00434 | 0.00513 | 0.00572 | 0.0062 | –
m1 = 0.000192 | 0.00338 | 0.00399 | 0.00448 | 0.00532 | 0.00599 | 0.00651 | –
m1 = 0.0002 | 0.00343 | 0.00405 | 0.00455 | 0.00542 | 0.00614 | 0.00669 | 33.81
m1 = 0.000208 | 0.00348 | 0.00412 | 0.00464 | 0.00552 | 0.00628 | 0.00688 | –
m1 = 0.000217 | 0.00352 | 0.00418 | 0.00471 | 0.00564 | 0.00642 | 0.00704 | –
m1 = 0.000227 | 0.00358 | 0.00426 | 0.00479 | 0.00574 | 0.00656 | 0.0072 | –
m1 = 0.000238 | 0.00365 | 0.00434 | 0.00488 | 0.00582 | 0.0067 | 0.00737 | –
m1 = 0.00025 | 0.00372 | 0.00443 | 0.00498 | 0.00594 | 0.00684 | 0.00754 | –
m1 = 0.0003 | – | – | – | – | – | – | 33.92

O [water] + CCCCCCCCCCCC[N+](C)(C)CCC[N+](C)(C)CCCCCCCCCCCC.[Br-].[Br-]
Settings | surface tension liquid-gas [mN/m]
298.15 K, m2 = 0 | 71.98
